# From ChEMBL document CHEMBL4130359, “Indazole-based ligands for estrogen-related receptor α as potential anti-diabetic agents” (Eur J Med Chem, 2017)
# Active and inactive are the calls of the source. The calls are words filed in the database; no cut-off is given here.
# Assays:
# Rattus norvegicus [1] = experiment: Increase in PCK1 mRNA expression in epididymal white adipose tissue of Zucker rat sub-chronic fa/fa prediabetic model at 10 mg/kg, po qd for 15 days by RT-PCR method; type: functional, organism-based
# Rattus norvegicus [2] = experiment: Effect on NFKB1 gene expression in epididymal white adipose tissue of Zucker rat sub-chronic fa/fa prediabetic model at 10 mg/kg, po qd for 15 days by microarray analysis relative to control; type: functional
# Rattus norvegicus [3] = experiment: Toxicity in […] model assessed as serum AST level at 10 mg/kg, po qd for 31 days measured on day 32 (reference value: 180 +/- 26 U/L); type: organism-based; details: in vivo, 744 h
# Rattus norvegicus [4] = experiment: Effect on DLST gene expression in epididymal white adipose tissue of Zucker rat sub-chronic fa/fa prediabetic model at 10 mg/kg, po qd for 15 days by microarray analysis relative to control; type: functional
# Rattus norvegicus [5] = experiment: Effect on NDUFS2 gene expression in epididymal white adipose tissue of Zucker rat sub-chronic fa/fa prediabetic model at 10 mg/kg, po qd for 15 days by microarray analysis relative to control; type: functional
# Rattus norvegicus [6] = experiment: Antidiabetic activity in Zucker rat sub-chronic fa/fa prediabetic model assessed as increase in serum adiponectin level administered orally once daily for 4 days by ELISA; type: functional, organism-based
# Rattus norvegicus [7] = experiment: Toxicity in […] model assessed as serum BUN level at 3 mg/kg, po qd for 31 days measured on day 32 (reference value: 28.3 +/- […]); type: organism-based; details: in vivo, 744 h
# Rattus norvegicus [8] = experiment: Toxicity in […] chronic ob/ob model assessed as change in body weight at 50 mg/kg, po qd for 28 days measured on day 1 to 28 during compound dosing (reference value: 9.9 +/- 1.27 g); type: organism-based; details: in vivo, 672 h
# Rattus norvegicus [9] = experiment: Toxicity in Zucker rat sub-chronic fa/fa prediabetic model assessed as body weight at 50 mg/kg, po qd for 29 days measured on day 29 post last dose (reference value: 533 +/- 10 g); type: organism-based; details: in vivo, 696 h
# Rattus norvegicus [10] = experiment: Effect on SFN gene expression in epididymal white adipose tissue of Zucker rat sub-chronic fa/fa prediabetic model at 10 mg/kg, po qd for 15 days by microarray analysis relative to control; type: functional
# Rattus norvegicus [11] = experiment: Toxicity in Zucker rat sub-chronic fa/fa prediabetic model assessed as insulin level per gram pancreas at 50 mg/kg, po qd for 31 days measured on day 32 (reference value: 55.2 +/- 5.5 ug); type: organism-based; details: in vivo, 744 h
# Rattus norvegicus [12] = experiment: Effect on COX6A2 gene expression in epididymal white adipose tissue of Zucker rat sub-chronic fa/fa prediabetic model at 10 mg/kg, po qd for 15 days by microarray analysis relative to control; type: functional
# [13] = Cmax in […] at 15 mg/kg administered via oral gavage by LC-MS analysis; type: ADME, organism-based; parameters: dose 15 mg/kg, route oral; details: in vivo
# Rattus norvegicus [14] = experiment: Effect on SDHD gene expression in epididymal white adipose tissue of Zucker rat sub-chronic fa/fa prediabetic model at 10 mg/kg, po qd for 15 days by microarray analysis relative to control; type: functional
# [15] = AUC (0 to 24 hrs) in Sprague-Dawley rat at 10 mg/kg administered via oral gavage by LC-MS analysis; type: ADME, organism-based; parameters: dose 10 mg/kg, time < 24 hr, route oral; details: in vivo
# Rattus norvegicus [16] = experiment: Effect on MED24 gene expression in epididymal white adipose tissue of Zucker rat sub-chronic fa/fa prediabetic model at 10 mg/kg, po qd for 15 days by microarray analysis relative to control; type: functional
# [17] = Clearance in CD-1 mouse at 5 mg/kg, iv by LC-MS analysis; type: ADME, organism-based; details: in vivo
# Rattus norvegicus [18] = experiment: Toxicity in Zucker rat sub-chronic fa/fa prediabetic model assessed as change in body weight at 10 mg/kg, po qd for 29 days measured on day 1 to 29 during compound dosing (reference value: 140 +/- 7 g); type: organism-based; details: in vivo, 696 h
# Rattus norvegicus [19] = experiment: Toxicity in Zucker rat sub-chronic fa/fa prediabetic model assessed as serum triglyceride level at 1 mg/kg, po qd for 31 days measured on day 32 (reference value: 1382 +/- 268 mg/dl); type: organism-based; details: in vivo, 744 h
# Rattus norvegicus [20] = experiment: Toxicity in Zucker rat sub-chronic fa/fa prediabetic model assessed as brown adipose tissue weight at 3 mg/kg, po qd for 31 days measured on day 32 (reference value: 2.1 +/- 0.3 g); type: organism-based; details: in vivo, 744 h
# Rattus norvegicus [21] = experiment: Toxicity in Zucker rat sub-chronic fa/fa prediabetic model assessed as serum ALT level at 3 mg/kg, po qd for 31 days measured on day 32 (reference value: 151 +/- 23 U/L); type: organism-based; details: in vivo, 744 h
# Rattus norvegicus [22] = experiment: Effect on PCCB gene expression in epididymal white adipose tissue of Zucker rat sub-chronic fa/fa prediabetic model at 10 mg/kg, po qd for 15 days by microarray analysis relative to control; type: functional
# Rattus norvegicus [23] = experiment: Toxicity in Zucker rat sub-chronic fa/fa prediabetic model assessed as heart weight at 3 mg/kg, po qd for 31 days measured on day 32 (reference value: 1.19 +/- 0.04 g); type: organism-based; details: in vivo, 744 h
# Rattus norvegicus [24] = experiment: Effect on HSD17B4 gene expression in epididymal white adipose tissue of Zucker rat sub-chronic fa/fa prediabetic model at 10 mg/kg, po qd for 15 days by microarray analysis relative to control; type: functional
# [25] = Cmax in CD-1 mouse at 20 mg/kg administered via oral gavage by LC-MS analysis; type: ADME, organism-based; parameters: dose 20 mg/kg, route oral; details: in vivo
# [26] = Volume of distribution at steady state in CD-1 mouse at 5 mg/kg, iv by LC-MS analysis; type: ADME, organism-based; details: in vivo, read-out: Vdss
# [27] = molecular target: Retinoic acid receptor RXR-alpha (Homo sapiens, UniProt P19793); experiment: Antagonist activity at recombinant GST-tagged human RXRalpha LBD assessed as inhibition of 9-cis-retinoic acid-induced fluorescein-labeled coactivator peptide recruitment preincubated with enzyme followed by coactivator addition by LanthaScreen TR-FRET assay
# Retinoic acid receptor RXR-alpha, sequence (P19793 whole entry, the tested form may be a part): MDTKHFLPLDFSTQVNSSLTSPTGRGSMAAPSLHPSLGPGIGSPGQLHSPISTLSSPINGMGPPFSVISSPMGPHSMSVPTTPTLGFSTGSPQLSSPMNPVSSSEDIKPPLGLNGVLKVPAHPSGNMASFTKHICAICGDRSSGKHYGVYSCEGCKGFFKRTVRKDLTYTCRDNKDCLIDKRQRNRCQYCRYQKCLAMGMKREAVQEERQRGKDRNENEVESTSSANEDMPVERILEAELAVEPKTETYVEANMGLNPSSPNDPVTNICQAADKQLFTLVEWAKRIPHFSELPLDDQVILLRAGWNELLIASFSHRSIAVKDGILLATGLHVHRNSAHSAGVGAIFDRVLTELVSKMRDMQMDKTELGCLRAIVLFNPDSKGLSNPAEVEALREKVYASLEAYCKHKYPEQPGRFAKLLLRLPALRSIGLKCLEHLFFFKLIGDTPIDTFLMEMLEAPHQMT
# [28] = molecular target: Peroxisome proliferator-activated receptor delta (Homo sapiens, UniProt Q03181); experiment: Antagonist activity at recombinant GST-tagged human PPARdelta LBD assessed as inhibition of GW0742-induced fluorescein-labeled coactivator peptide recruitment preincubated with enzyme followed by coactivator addition by LanthaScreen TR-FRET assay
# Peroxisome proliferator-activated receptor delta, sequence (Q03181 whole entry, the tested form may be a part): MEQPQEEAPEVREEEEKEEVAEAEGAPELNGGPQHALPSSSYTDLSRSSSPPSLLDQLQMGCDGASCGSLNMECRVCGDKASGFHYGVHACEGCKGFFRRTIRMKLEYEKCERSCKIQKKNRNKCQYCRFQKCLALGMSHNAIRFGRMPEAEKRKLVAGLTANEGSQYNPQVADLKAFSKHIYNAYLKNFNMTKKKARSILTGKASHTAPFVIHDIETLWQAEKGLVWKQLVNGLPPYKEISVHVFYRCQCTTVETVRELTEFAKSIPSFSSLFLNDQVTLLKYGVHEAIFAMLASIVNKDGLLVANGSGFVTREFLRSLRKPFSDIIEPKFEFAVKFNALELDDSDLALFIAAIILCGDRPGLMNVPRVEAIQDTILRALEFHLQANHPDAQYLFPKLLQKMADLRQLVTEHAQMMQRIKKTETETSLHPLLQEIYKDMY
# Rattus norvegicus [29] = type: functional, Zucker
# Rattus norvegicus [30] = experiment: Toxicity in Zucker rat sub-chronic fa/fa prediabetic model assessed as serum triglyceride level at 3 mg/kg, po qd for 31 days measured on day 32 (reference value: 1382 +/- 268 mg/dl); type: organism-based; details: in vivo, 744 h
# Rattus norvegicus [31] = experiment: Effect on EIF2B3 gene expression in epididymal white adipose tissue of Zucker rat sub-chronic fa/fa prediabetic model at 10 mg/kg, po qd for 15 days by microarray analysis relative to control; type: functional
# Rattus norvegicus [32] = experiment: Effect on PFKFB1 gene expression in epididymal white adipose tissue of Zucker rat sub-chronic fa/fa prediabetic model at 10 mg/kg, po qd for 15 days by microarray analysis relative to control; type: functional
# Rattus norvegicus [33] = experiment: Effect on THEM4 gene expression in epididymal white adipose tissue of Zucker rat sub-chronic fa/fa prediabetic model at 10 mg/kg, po qd for 15 days by microarray analysis relative to control; type: functional
# [34] = Terminal half life in CD-1 mouse at 20 mg/kg administered via oral gavage by LC-MS analysis; type: ADME, organism-based; details: in vivo, read-out: beta t1/2 (converted)
structure (smiles),measurement,setting,value
CN1CC[C@@H](N2C(=O)S/C(=C\c3ccc4c(cnn4Cc4ccc(Cl)cc4C(F)(F)F)c3)C2=O)[C@H](F)C1,Activity,Rattus norvegicus [1],Active
same,fold change (FC),Rattus norvegicus [2],-1.254
same,Activity,Rattus norvegicus [3],171 U/L
same,fold change (FC),Rattus norvegicus [4],1.352
same,fold change (FC),Rattus norvegicus [5],1.224
same,Activity,Rattus norvegicus [6],Dose-dependent effect
same,Activity,Rattus norvegicus [7],25.5 mg/dL
same,Activity,Rattus norvegicus [8],9.4 g
same,Activity,Rattus norvegicus [9],557 g
same,fold change (FC),Rattus norvegicus [10],-1.468
same,Activity,Rattus norvegicus [11],94 µg
same,fold change (FC),Rattus norvegicus [12],1.35
same,Cmax,[13],4020 ng/mL
same,fold change (FC),Rattus norvegicus [14],1.275
same,AUC(0-t) at 24 h,[15],5410 ng·h/mL
same,fold change (FC),Rattus norvegicus [16],-1.216
same,clearance,[17],10 mL/min/kg
same,Activity,Rattus norvegicus [18],150 g
same,Activity,Rattus norvegicus [19],1040 mg/dL
same,Activity,Rattus norvegicus [20],4.4 g
same,Activity,Rattus norvegicus [21],117 U/L
same,fold change (FC),Rattus norvegicus [22],-1.413
same,Activity,Rattus norvegicus [23],1.15 g
same,fold change (FC),Rattus norvegicus [24],1.226
same,Cmax,[25],2000 ng/mL
same,Vd,[26],6.89 L/kg
same,IC50,[27],> 10 µM
same,IC50,[28],> 10 µM
same,Activity,Rattus norvegicus [29],14.9%
same,Activity,Rattus norvegicus [30],584 mg/dL
same,fold change (FC),Rattus norvegicus [31],1.203
same,fold change (FC),Rattus norvegicus [32],1.634
same,fold change (FC),Rattus norvegicus [33],1.465
same,half-life,[34],10.6 h
